Holding throughout (format): functional
For experiment [1], the system named is Candida albicans. The experiment is described as follows: Potentiation of amphotericin-induced antifungal activity against Candida albicans ATCC 90029 assessed as fold reduction in amphotericin MIC at 16 ug/ml after 24 hrs by broth microdilution method relative to amphotericin MIC alone.
Experiment [2] has as its system Candida albicans. Briefly: Potentiation of amphotericin-induced antifungal activity against Candida albicans ATCC 90029 assessed as fold reduction in amphotericin MIC at 32 ug/ml after 24 hrs by broth microdilution method relative to amphotericin MIC alone. (In broth dilution the organism is exposed to a series of concentrations in liquid medium.)
For experiment [3], the system named is Candida albicans. Briefly: Potentiation of amphotericin-induced antifungal activity against Candida albicans ATCC 90029 assessed as amphotericin MIC at 16 ug/ml after 24 hrs by broth microdilution method (reference value: 0.5 ug/ml). As to conditions: ATCC 90029, 24 h.
The subject of experiment [4] is Candida albicans. The experiment is described as follows: Potentiation of amphotericin-induced antifungal activity against Candida albicans ATCC 90029 assessed as amphotericin MIC at 32 ug/ml after 24 hrs by broth microdilution method (reference value: 0.5 ug/ml). The following applies: ATCC 90029, 24 h.
Experiment [5] concerns Candida albicans. The experiment is described as follows: Potentiation of amphotericin-induced antifungal activity against Candida albicans ATCC 90029 assessed as fold reduction in amphotericin MIC at 8 ug/ml after 24 hrs by broth microdilution method relative to amphotericin MIC alone.
For experiment [6], the system named is Candida albicans. The experiment is described as follows: Potentiation of amphotericin-induced antifungal activity against Candida albicans ATCC 90029 assessed as amphotericin MIC at 8 ug/ml after 24 hrs by broth microdilution method (reference value: 0.5 ug/ml). The following applies: ATCC 90029, 24 h.
In experiment [7] the test system is Candida albicans. The experiment is described as follows: Potentiation of amphotericin-induced antifungal activity against Candida albicans ATCC 90029 assessed as amphotericin MIC at 2 ug/ml after 24 hrs by broth microdilution method (reference value: 0.5 ug/ml). As to conditions: ATCC 90029, 24 h.
Experiment [8] relates to Candida albicans. Briefly: Potentiation of amphotericin-induced antifungal activity against Candida albicans ATCC 90029 assessed as fold reduction in amphotericin MIC at 4 ug/ml after 24 hrs by broth microdilution method relative to amphotericin MIC alone.
Experiment [9] deals with Candida albicans. Briefly: Potentiation of amphotericin-induced antifungal activity against Candida albicans ATCC 90029 assessed as fold reduction in amphotericin MIC at 2 ug/ml after 24 hrs by broth microdilution method relative to amphotericin MIC alone.
Experiment [10] deals with Candida albicans. Briefly: Potentiation of amphotericin-induced antifungal activity against Candida albicans ATCC 90029 assessed as amphotericin MIC at 4 ug/ml after 24 hrs by broth microdilution method (reference value: 0.5 ug/ml). The following applies: ATCC 90029, 24 h.

Molecules are shown by their SMILES. Non-standard residues stand in square brackets, D forms with d. Residues, ends and D or L forms follow the SMILES beside them. *: point of attachment. NMeY = CN[C@@H](Cc1ccc(O)cc1)C(=O)O; 2Abz = Nc1ccccc1C(=O)O; tBu = CC(C)(C)*

As for `CC(C)[C@H](N)C(=O)N(C)[C@@H](Cc1ccc(OC(C)(C)C)cc1)C(=O)Nc1ccccc1C(=O)N[C@@H](C)C(=O)O` (H-V[NMeY](tBu)[2Abz]A-OH), the figures for the Ratio in the experiment with Candida albicans [1], in the experiment with Candida albicans [2] and in the experiment with Candida albicans [5] were 4, 8 and 2, respectively. For the same compound, the MIC (usually the least concentration at which growth counts as inhibited) with Candida albicans [3] amounted to 0.13 µg/mL; with Candida albicans [4], 0.063 µg/mL; with Candida albicans [6] it was 0.25 µg/mL.
For the compound `CN[C@@H](Cc1ccc(OC(C)(C)C)cc1)C(=O)Nc1ccccc1C(=O)N[C@@H](C)C(=O)N[C@H](C(=O)O)C(C)C` (H-[NMeY](tBu)[2Abz]AV-OH), the Ratio in the experiment on Candida albicans [1] is 8; in the experiment on Candida albicans [2] it was 16; in the experiment with Candida albicans [5], 4. Further, the MIC is 0.063 µg/mL in the experiment on Candida albicans [3], 0.031 µg/mL in the experiment with Candida albicans [4] and 0.13 µg/mL with Candida albicans [6].
As to `Nc1ccccc1C(=O)O` [ANTHRANILIC ACID], the Ratio with Candida albicans [2] stood at 1. Also, the MIC with Candida albicans [4] is 0.5 µg/mL.
As to `CC(C)[C@H]1NC(=O)[C@H](C)NC(=O)c2ccccc2NC(=O)[C@H](Cc2ccc(O)cc2)N(C)C1=O`, the Ratio is recorded as 8 with Candida albicans [1], 16 in the experiment with Candida albicans [2] and 4 in the experiment with Candida albicans [5]. Further, the figures for the MIC in the experiment with Candida albicans [3], with Candida albicans [4] and in the experiment with Candida albicans [6] were 0.063 µg/mL, 0.031 µg/mL and 0.13 µg/mL, respectively.
`CC(C)[C@H](NC(=O)[C@H](C)NC(=O)c1ccccc1N)C(=O)N(C)[C@@H](Cc1ccc(OC(C)(C)C)cc1)C(=O)O` (H-[2Abz]AV[NMeY](tBu)-OH): the Ratio worked out at 4 in the experiment on Candida albicans [1], 4 in the experiment with Candida albicans [2] and 2 in the experiment with Candida albicans [5]. Also, the values for the MIC with Candida albicans [3], in the experiment with Candida albicans [4] and in the experiment on Candida albicans [6] were 0.13 µg/mL, 0.13 µg/mL and 0.25 µg/mL, respectively.
Take `CC(C)[C@H](NC(=O)[C@H](C)N)C(=O)N(C)[C@@H](Cc1ccc(OC(C)(C)C)cc1)C(=O)Nc1ccccc1C(=O)O` (H-AV[NMeY](tBu)[2Abz]-OH): the MIC was 0.25 µg/mL with Candida albicans [7]; 0.031 µg/mL in the experiment with Candida albicans [3]; 0.031 µg/mL in the experiment with Candida albicans [4]; 0.031 µg/mL in the experiment on Candida albicans [6]; 0.13 µg/mL in the experiment with Candida albicans [10]. Also, the Ratio was found to be 16 with Candida albicans [1], 16 with Candida albicans [2], 4 in the experiment on Candida albicans [8] and 2 with Candida albicans [9].

The values are drawn from ChEMBL document CHEMBL4334492, “Nectriatide, a Potentiator of Amphotericin B Activity from Nectriaceae sp. BF-0114” (J Nat Prod, 2019).
